Laboratory results: ChEMBL document CHEMBL5360567, “Modulating leishmanial pteridine metabolism machinery via some new coumarin-1,2,3-triazoles: Design, synthesis and computational studies” (Eur J Med Chem, 2023)

Columns and labels:
[1] = tested on: Leishmania tropica; experiment: Antileishmanial activity against Leishmania tropica amastigotes incubated for 24 hrs measured by alamar blue staining based fluorescence analysis; assay type: functional, organism-based
[2] = tested on: Leishmania tropica; experiment: Antileishmanial activity against Leishmania tropica promastigotes incubated for 24 hrs measured by alamar blue staining based fluorescence analysis; assay type: functional, organism-based
[3] = tested on: Leishmania major; experiment: Antileishmanial activity against Leishmania major promastigotes incubated for 24 hrs measured by alamar blue staining based fluorescence analysis; assay type: functional, organism-based
[4] = tested on: Leishmania major; experiment: Antileishmanial activity against Leishmania major amastigotes incubated for 24 hrs measured by alamar blue staining based fluorescence analysis; assay type: functional, organism-based
[5] = tested on: Leishmania major; experiment: Potency index, ratio of iC50 for miltefosine IC50 to test compound IC50 for antileishmanial activity against Leishmania major promastigotes; assay type: functional
[6] = tested on: Leishmania major; experiment: Reversal of antileishmanial activity against Leishmania major promastigotes assessed as parasite survival at IC50 preincubated with 20 uM folinic acid for 1 hr followed by compound incubated for 48 hrs (reference value: 24%); assay type: functional
[7] = tested on: Leishmania major; experiment: Reversal of antileishmanial activity against Leishmania major promastigotes assessed as parasite survival at IC50 preincubated with 100 uM folinic acid for 1 hr followed by compound incubated for 48 hrs (reference value: 24%); assay type: functional
[8] = tested on: Leishmania major; experiment: Reversal of antileishmanial activity against Leishmania major promastigotes assessed as parasite survival at IC50 preincubated with 100 uM folic acid for 1 hr followed by compound incubated for 48 hrs (reference value: 24%); assay type: functional
[9] = Cytotoxicity against green monkey Vero cells incubated for 72 hrs by crystal violet staining analysis; assay type: toxicity, cell-based; details: chlorocebus sabaeus
[10] = tested on: Leishmania major; experiment: Reversal of antileishmanial activity against Leishmania major promastigotes assessed as parasite survival at IC50 preincubated with 20 uM folic acid for 1 hr followed by compound incubated for 48 hrs (reference value: 24%); assay type: functional
[11] = Selectivity index, ratio of CC50 for green monkey Vero cells to IC50 for antileishmanial activity against Leishmania major amastigotes; assay type: toxicity, cell-based; details: read-out: Ratio CC50/IC50
[12] = tested on: Leishmania major; experiment: Antileishmanial activity against Leishmania major amastigotes incubated for 24 hrs measured by alamar blue staining based fluorescence analysis relative to control; assay type: functional
[13] = tested on: Leishmania major; experiment: Antileishmanial activity against Leishmania major promastigotes incubated for 24 hrs measured by alamar blue staining based fluorescence analysis relative to control; assay type: functional
[14] = tested on: Leishmania major; experiment: Reversal of antileishmanial activity against Leishmania major promastigotes assessed as parasite survival at IC50 preincubated with 100 uM folic acid for 1 hr followed by compound incubated for 48 hrs (reference value: 20%); assay type: functional
[15] = tested on: Leishmania major; experiment: Reversal of antileishmanial activity against Leishmania major promastigotes assessed as parasite survival at IC50 preincubated with 100 uM folinic acid for 1 hr followed by compound incubated for 48 hrs (reference value: 20%); assay type: functional
[16] = tested on: Leishmania major; experiment: Reversal of antileishmanial activity against Leishmania major promastigotes assessed as parasite survival at IC50 preincubated with 20 uM folic acid for 1 hr followed by compound incubated for 48 hrs (reference value: 20%); assay type: functional
[17] = tested on: Leishmania major; experiment: Reversal of antileishmanial activity against Leishmania major promastigotes assessed as parasite survival at IC50 preincubated with 20 uM folinic acid for 1 hr followed by compound incubated for 48 hrs (reference value: 20%); assay type: functional
[18] = tested on: Leishmania major; experiment: Reversal of antileishmanial activity against Leishmania major promastigotes assessed as parasite survival at IC50 preincubated with 100 uM folic acid for 1 hr followed by compound incubated for 48 hrs (reference value: 22%); assay type: functional
[19] = tested on: Leishmania major; experiment: Reversal of antileishmanial activity against Leishmania major promastigotes assessed as parasite survival at IC50 preincubated with 100 uM folinic acid for 1 hr followed by compound incubated for 48 hrs (reference value: 22%); assay type: functional
[20] = tested on: Leishmania major; experiment: Potency index, ratio of IC50 for miltefosine IC50 to test compound IC50 for antileishmanial activity against Leishmania major amastigotes; assay type: functional
[21] = tested on: Leishmania major; experiment: Reversal of antileishmanial activity against Leishmania major promastigotes assessed as parasite survival at IC50 preincubated with 20 uM folic acid for 1 hr followed by compound incubated for 48 hrs (reference value: 22%); assay type: functional
[22] = tested on: Leishmania major; experiment: Reversal of antileishmanial activity against Leishmania major promastigotes assessed as parasite survival at IC50 preincubated with 20 uM folinic acid for 1 hr followed by compound incubated for 48 hrs (reference value: 22%); assay type: functional

| Structure (SMILES) | IC50 [3] [nM] | IC50 [4] [nM] | Ratio IC50 [5] | further results |
| --- | --- | --- | --- | --- |
| O=C(N/N=C1\C(=O)N(CC(O)COc2cc(=O)oc3ccccc23)c2ccccc21)c1ccncc1 (stereo not given) |  |  |  | IC50 [1]: 870 nM; IC50 [2]: 100 nM |
| CCCCOc1ccc2cc(/C(C)=N/OCCCCCCn3cc(CN4CCOCC4)nn3)c(=O)oc2c1 | 4630 | 5290 | 2 |  |
| CCCCOc1ccc2cc(C(=O)NCCCCCCn3cc(CN4CCCC4)nn3)c(=O)oc2c1 | 590 | 810 | 13 | Activity [6]: 83%; Activity [7]: 94%; Activity [8]: 84%; CC50 at 72 h [9]: 252000 nM; Activity [10]: 76%; selectivity ratio [11]: 311 |
| CCCCOc1ccc2cc(C(=O)NCCCCCCn3cc(CN4C(=O)CSC4=O)nn3)c(=O)oc2c1 | 2270 | 3880 | 3 | Activity [12]: 48%; Activity [13]: 30% |
| CCCCOc1ccc2cc(/C(C)=N/OCCCCCCn3cc(CN4CCCCC4)nn3)c(=O)oc2c1 | 3870 | 4470 | 2 |  |
| CCCCOc1ccc2cc(C(=O)NCCCCCCn3cc(CN4CCOCC4)nn3)c(=O)oc2c1 | 400 | 680 | 20 | Activity [14]: 91%; CC50 at 72 h [9]: 244000 nM; Activity [15]: 91%; Activity [16]: 82%; Activity [17]: 88%; selectivity ratio [11]: 359 |
| CCCCOc1ccc2cc(C(=O)NCCCCCCn3cc(CN4CCCCC4)nn3)c(=O)oc2c1 | 1210 | 1830 | 7 |  |
| CCCCOc1ccc2cc(C(=O)NCCCCCCn3cc(CSC4=NC(=O)CS4)nn3)c(=O)oc2c1 | 2350 | 3860 | 3 | Activity [12]: 48%; Activity [13]: 30% |
| CCCCOc1ccc2cc(/C(C)=N/OCCCCCCn3cc(CSC4=NC(=O)CS4)nn3)c(=O)oc2c1 | 3730 | 4840 | 2 |  |
| CCCCOc1ccc2cc(/C(C)=N/OCCCCCCn3cc(CN4C(=O)CSC4=O)nn3)c(=O)oc2c1 | 2830 | 3900 | 3 |  |
| CCCCOc1ccc2cc(/C(C)=N/OCCCCCCn3cc(CN4CCCC4)nn3)c(=O)oc2c1 | 780 | 990 | 10 | Activity [18]: 81%; Activity [19]: 87%; Ratio IC50 [20]: 8; CC50 at 72 h [9]: 490000 nM; Activity [21]: 74%; Activity [22]: 79%; selectivity ratio [11]: 496 |
